For seven compounds, EC50 and CC50 results are on record in ChEMBL document CHEMBL1130640, “Lactate cannot substitute for alanine in d4T-based anti-HIV nucleotide prodrugs--despite efficient esterase-mediated hydrolysis” (Bioorg Med Chem Lett, 1998).

What all share (conditions): Homo sapiens
The test system of assay [1] is CCRF-CEM. The assay is described as follows: Compound was tested for anti-HIV-1 activity in CEM/0 cell line. It counts as functional, cell-based.
The subject of assay [2] is CCRF-CEM. In words: Compound was tested for cytostatic activity in CEM cell line. It counts as functional.
For assay [3], the system named is CCRF-CEM. In words: Compound was tested for anti-HIV-2 activity in CEM/0 cell line. It counts as functional, cell-based.
For assay [4], the system named is CEM-TK(-). The assay is described as follows: Compound was tested for anti-HIV-2 activity in CEM/TK- cell line. It counts as functional, cell-based.
Assay [5] concerns CCRF-CEM. In words: Compound was tested for cytostatic activity in CEM cell line. The class given is functional.
The test system of assay [6] is CCRF-CEM. In words: Compound was tested for anti-HIV-1 activity in CEM/0 cell line. The class given is functional, cell-based.
Assay [7] deals with CEM-TK(-). In words: Compound was tested for anti-HIV-2 activity in CEM/TK- cell line. The class given is functional, cell-based.
The subject of assay [8] is CCRF-CEM. The assay is described as follows: Compound was tested for anti-HIV-2 activity in CEM/0 cell line. It counts as functional, cell-based.

By EC50 is commonly meant the concentration giving half of the maximal effect. One may read the CC50 as the concentration giving 50% cytotoxicity. A lower CC50 goes with harm at low concentration.

`COC(=O)COP(=O)(OCC1C=CC(n2cc(C)c(=O)[nH]c2=O)O1)Oc1ccccc1` (centres undefined): the results for the EC50 in assay [1], in assay [3] and in assay [4] were 27.5 µM, 50 µM and greater than 250 µM, respectively. The compound further showed a CC50 in assay [2] greater than 250 µM.
For `CCOC(=O)COP(=O)(OCC1C=CC(n2cc(C)c(=O)[nH]c2=O)O1)Oc1ccccc1` (centres undefined), the 50% effective concentration (EC50) in assay [1] was 12.5 µM; in assay [3], 12.5 µM; in assay [4] it was 150 µM. This compound displayed a CC50 in assay [2] of no less than 250 µM.
Regarding `COC(=O)CNP(=O)(OCC1C=CC(n2cc(C)c(=O)[nH]c2=O)O1)Oc1ccccc1` (centres undefined), in assay [2], the CC50 was no less than 250 µM. This compound also gave a half-maximal effective concentration (EC50) in assay [4] of 7 µM.
Regarding `COC(=O)C(C)OP(=O)(OCC1C=CC(n2cc(C)c(=O)[nH]c2=O)O1)Oc1ccccc1` (centres undefined), the figures for the EC50 in assay [1], in assay [3] and in assay [4] were 4 µM, 5 µM and greater than 250 µM, respectively. Also, the CC50 in assay [2] is no less than 250 µM.
Take `COC(=O)C(C)NP(=O)(OC[C@@H]1C=C[C@H](n2cc(C)c(=O)[nH]c2=O)O1)Oc1ccccc1` (some centres undefined): the CC50 in assay [2] is greater than 100 µM. In addition, in assay [4], the EC50 came out at 0.075 µM.
In the case of `Cc1cn([C@H]2C=C[C@@H](CO)O2)c(=O)[nH]c1=O` [STAVUDINE], the CC50 in assay [5] was greater than 100 µM. In addition, the EC50 in assay [6] is 0.25 µM; in assay [7], greater than 100 µM; in assay [8] it was 1.2 µM.
Take `CCOC(=O)C(C)OP(=O)(OCC1C=CC(n2cc(C)c(=O)[nH]c2=O)O1)Oc1ccccc1` (centres undefined): the EC50 in assay [1] worked out at 28 µM; in assay [3], 23 µM; in assay [4], 160 µM. In assay [2], this compound registered a CC50 greater than 250 µM.
